Results on 33 compounds are retold here after patent US5621133A (priority 1995, dated 1997).

The target in experiment [1] is dopamine D-2 receptor (Rattus norvegicus, UniProt P61169). Put plainly: biochemical. The class given is binding. Particulars: rat caudate, [125I]-p-aminophenylethyl spiroperidol; read-out: D-2 Ki. Here is the method:
Homogenized rat caudate was the source of the D-2 receptors. […] The molar affinity of the compound for the receptor binding site was calculated by the same method used for the D-1 receptor assay, assuming a competitive interaction between the compound and the radiolabeled ligand.

The target in experiment [2] is dopamine D-1 receptor (Rattus norvegicus, UniProt P18901). Nature of the experiment: biochemical. Particulars: D-1 Ki, rat caudate, [125I]SCH-23982.
Description: The compounds compete with the radiolabeled ligand for occupancy of the receptors and the molar potency of each compound was quantified.
The Ki values are inversely proportional to the affinity of the compound for the receptor.
Experiment [3] has as its system dopamine D-1 receptor. The settings on record: for Intrinsic Activity (adenylate cyclase assay): dopamine = 100, goldfish retina or rat striatum; for EC50: read-out: EC50 (agonist activity in adenylate cyclase assay), tissue from goldfish retina or rat striatum.
Protocol: In order to determine agonist activity, cell-free tissue homogenates are incubated in an ionic buffer solution containing ATP and the compound being evaluated. The tissue was obtained from either goldfish retina or rat striatum.

SMILES strings stand for the structures. Structures can show the parent of a compound that is named as a salt.

dopamine D-1 receptor (Rattus norvegicus, UniProt P18901), sequence (P18901 whole entry): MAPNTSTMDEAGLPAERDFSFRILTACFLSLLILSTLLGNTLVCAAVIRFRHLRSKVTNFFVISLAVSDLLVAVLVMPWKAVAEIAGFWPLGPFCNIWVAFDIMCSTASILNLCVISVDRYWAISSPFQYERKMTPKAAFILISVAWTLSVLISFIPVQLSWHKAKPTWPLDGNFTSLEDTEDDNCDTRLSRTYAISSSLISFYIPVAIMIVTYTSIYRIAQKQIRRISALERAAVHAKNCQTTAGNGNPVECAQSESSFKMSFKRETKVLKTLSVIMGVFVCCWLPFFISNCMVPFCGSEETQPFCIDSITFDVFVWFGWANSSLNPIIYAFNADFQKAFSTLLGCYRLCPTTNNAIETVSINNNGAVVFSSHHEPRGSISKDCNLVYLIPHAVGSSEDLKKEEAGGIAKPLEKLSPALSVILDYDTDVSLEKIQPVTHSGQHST
dopamine D-2 receptor, sequence (P61169 whole entry): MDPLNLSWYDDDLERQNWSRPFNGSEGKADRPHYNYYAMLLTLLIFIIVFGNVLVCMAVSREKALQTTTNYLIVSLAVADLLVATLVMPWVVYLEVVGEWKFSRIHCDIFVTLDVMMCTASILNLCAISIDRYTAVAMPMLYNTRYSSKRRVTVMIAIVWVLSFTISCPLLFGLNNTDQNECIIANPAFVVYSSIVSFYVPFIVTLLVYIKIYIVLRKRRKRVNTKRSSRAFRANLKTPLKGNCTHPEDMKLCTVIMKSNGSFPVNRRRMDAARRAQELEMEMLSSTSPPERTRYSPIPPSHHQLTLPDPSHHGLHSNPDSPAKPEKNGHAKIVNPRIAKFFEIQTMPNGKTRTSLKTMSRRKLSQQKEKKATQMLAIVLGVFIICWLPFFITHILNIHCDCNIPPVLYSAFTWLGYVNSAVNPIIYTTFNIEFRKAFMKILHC

Turning to `CNC[C@@H]1O[C@H](C23CC4CC(CC(C4)C2)C3)Cc2c1ccc(O)c2O` [Example 134], the Ki was 1000 nM in experiment [1] and 35 nM in experiment [2]. The “Intrinsic Activity (adenylate cyclase assay)” value (from here on “Intrinsic Activity”) in experiment [3] stood at 81. The EC50 in experiment [3] came out at 4 nM.
Consider `CNC[C@H]1O[C@@H](CCN)Cc2c1ccc(O)c2O` (relative stereo) [Example 173], for which the Ki in experiment [1] stood at 14000 nM. Also, in experiment [2], the Ki came to 3600 nM. In experiment [3], the “Intrinsic Activity” value was 63 and the EC50 was determined as 390 nM.
With `NCC1CC2(CCCCCCCC2)Cc2c1ccc(O)c2O` (centres unmarked) [Example 236], the Ki in experiment [1] was over 10000 nM; in experiment [2], 4400 nM. In experiment [3], the “Intrinsic Activity” value came out at 36. Besides, the EC50 in experiment [3] came out at 700 nM.
`NC[C@@H]1O[C@H](CN2Cc3ccccc3C2=O)Cc2c1ccc(O)c2O` (relative stereo) [Example 87]: the inhibition constant Ki in experiment [1] amounted to 700 nM. The compound also showed a Ki in experiment [2] of 11000 nM. For the same compound, in experiment [3], the “Intrinsic Activity” value was found to be 54 and the EC50 came out at 50 nM.
For the compound `Oc1ccc2c(c1O)C[C@@H](c1ccccc1)C[C@H]2[C@H]1CCCN1` (relative stereo) [Example 180, [1,3-cis]5,6-Dihydroxy-3-phenyl-1-(2'-pyrrolidinyl)-1,2,3,4-tetrahydronaphthalene Hydrobromide], the Ki amounted to 4700 nM in experiment [1] and 1100 nM in experiment [2]. Also, the “Intrinsic Activity” value in experiment [3] was determined as 71. Moreover, in experiment [3], the EC50 was 80 nM.
The like results for `C=CCNC[C@H]1O[C@@H](CCCC)Cc2c1ccc(O)c2O` (relative stereo) [Example 125] were, in that order, over 10000 nM, 2700 nM, 63 and 1000 nM.
As for `CCOC(=O)CC(=O)NC[C@@H]1Cc2c(ccc(O)c2O)[C@H](CN)O1` (relative stereo) [Example 92], in experiment [1], the Ki came to 5400 nM. For the same compound, the affinity in experiment [2] corresponds to a Ki of 1500 nM. Also, in experiment [3], the “Intrinsic Activity” value amounted to 69 and the EC50 came to 600 nM.
The like results for `COc1cccc([C@@H]2Cc3c(ccc(O)c3O)[C@H](CN)O2)c1` (relative stereo) [Example 82] were, in that order, 820 nM, 11 nM, 107 and 7 nM.
For `Oc1ccc2c(c1O)C[C@H](c1ccccc1)O[C@@H]2[C@H]1CCCN1` [Example 127], the Ki in experiment [1] was over 10000 nM. In addition, the Ki in experiment [2] came out at 1300 nM. Moreover, in experiment [3], the “Intrinsic Activity” value turned out to be 55 and the EC50 is 520 nM.
As for `Oc1ccc2c(c1O)C[C@H](C1CCCCC1)O[C@@H]2CN1CCCC1` (relative stereo) [Example 115], in experiment [1], the Ki amounted to 3000 nM. For the same compound, the Ki in experiment [2] was 12000 nM. In experiment [3], the “Intrinsic Activity” value is 68 and the EC50 was 2200 nM.
For `CCC(=O)Oc1ccc2c(c1OC(=O)CC)CC(c1ccccc1)C=C2CN` (centres unmarked) [Example 20], the Ki was over 10000 nM in experiment [1] and 1900 nM in experiment [2]. In experiment [3], the “Intrinsic Activity” value worked out at 80. In addition, the EC50 in experiment [3] was 500 nM.
The like results for `CCNC[C@@H]1O[C@H](C(C)(C)C)Cc2c1ccc(O)c2O` [Example 128] were, in that order, 23000 nM, 570 nM, 108 and 87 nM.
Consider `CC(=O)NC[C@H]1Cc2c(ccc(O)c2O)[C@@H](CN)O1` (relative stereo) [Example 161], for which the Ki in experiment [1] was determined as 170 nM. The affinity in experiment [2] corresponds to a Ki of 1300 nM. Further, in experiment [3], the “Intrinsic Activity” value is on record as 58 and the concentration for a half-maximal effect (EC50) came to 450 nM.
As for `NC[C@@H]1O[C@H](COc2ccc(Br)cc2)Cc2c1ccc(O)c2O` (relative stereo) [Example 58], the Ki in experiment [1] stood at 1200 nM. Affinity in experiment [2] was put at a Ki of 260 nM. Further, in experiment [3], the “Intrinsic Activity” value stood at 63 and the 50% effective concentration (EC50) was 19 nM.
The like results for `COC(=O)Oc1ccc2c(c1OC(=O)OC)CC(c1ccccc1)C=C2CN` (centres unmarked) [Example 23] were, in that order, over 10000 nM, 500 nM, 65 and 1100 nM.
Take `CNC[C@H]1O[C@@H](CCO)Cc2c1ccc(O)c2O` (relative stereo) [Example 174]: the Ki in experiment [1] amounted to 3500 nM. Further, the Ki in experiment [2] was found to be 1200 nM. In addition, in experiment [3], the “Intrinsic Activity” value worked out at 90 and the 50% effective concentration (EC50) was determined as 65 nM.
For `Cc1cc2c(c(O)c1O)C[C@@H](C1CCCCC1)O[C@H]2CN` (relative stereo) [Example 177, [1,3-cis]1-Aminomethyl-3-cyclohexyl-3,4-dihydro-5,6-dihydroxy-7-methyl-1H-2-benzopyran Hydrochloride], the figures for the Ki in experiment [1] and in experiment [2] were 6600 nM and 130 nM, respectively. For the same compound, the “Intrinsic Activity” value in experiment [3] is reported as 62. Also, the EC50 in experiment [3] was 170 nM.
The like results for `CC(C)(C)C1C=C(CN)c2ccc(O)c(O)c2C1` (centres unmarked) [Example 190] were, in that order, 6300 nM, 330 nM, 92 and 110 nM.
Consider `CN(C)C[C@@H]1O[C@H](C2(C)CCCCC2)Cc2c1ccc(O)c2O` (relative stereo) [Example 230], for which the figures for the Ki in experiment [1] and in experiment [2] were over 10000 nM and 26 nM, respectively. Besides, in experiment [3], the “Intrinsic Activity” value was found to be 59. For the same compound, in experiment [3], the EC50 came out at 120 nM.
Take `NC[C@@H]1O[C@H](C2CCCCC2)Cc2c1ccc1c2OC2(CCCCC2)O1` (relative stereo) [Example 63]: the Ki in experiment [1] was over 10000 nM. In experiment [2], this compound had a Ki of 71000 nM. Moreover, in experiment [3], the “Intrinsic Activity” value turned out to be 43 and the EC50 was determined as 710 nM.
The like results for `NCC[C@H]1Cc2c(ccc(O)c2O)[C@@H](CN)O1` (relative stereo) [Example 159] were, in that order, 3700 nM, 3100 nM, 129 and 150 nM.
The like results for `CNC[C@@H]1S[C@H](c2ccccc2)Cc2c1ccc(O)c2O` (relative stereo) [Example 187, [1,3-cis]1-(N-Methyl)aminomethyl-3-phenyl-3,4-dihydro-5,6-dihydroxy-1H-2-benzothiopyran Hydrochloride] were, in that order, 6400 nM, 2500 nM, 70 and 1200 nM.
`CN1CCC2=C(C1)c1ccc(O)c(O)c1CC21CCCC1` [Example 211]: the Ki was over 10000 nM in experiment [1] and 580 nM in experiment [2]. For the same compound, in experiment [3], the “Intrinsic Activity” value is given as 38. Moreover, in experiment [3], the EC50 worked out at 63 nM.
On to `NC[C@H]1O[C@@H](CNC(=O)c2ccc(Br)cc2)Cc2c1ccc(O)c2O` (relative stereo) [Example 167], for which, in experiment [1], the Ki is 2.1 nM. In experiment [2], the Ki came out at 310 nM. Moreover, in experiment [3], the “Intrinsic Activity” value was 125 and the EC50 amounted to 120 nM.
The like results for `NC[C@H]1O[C@@H](CO)Cc2c1ccc(O)c2O` (relative stereo) [Example 155, [1,3-cis]1-Aminomethyl-3,4-dihydro-5,6-dihydroxy-3-hydroxymethyl-1H-2-benzopyran Hydrochloride] were, in that order, 8200 nM, 2600 nM, 95 and 150 nM.
In the case of `NC[C@H]1O[C@@H](CN2CCCC2)Cc2c1ccc(O)c2O` (relative stereo) [Example 156, [1,3-cis]1-Aminomethyl-3,4-dihydro-5,6-dihydroxy-3-pyrrolidinylmethyl-1H-2-benzopyran Dihydrochloride], the inhibition constant (Ki) in experiment [1] came to 16000 nM. In experiment [2], this compound had a Ki of 6300 nM. Also, in experiment [3], the “Intrinsic Activity” value was determined as 127 and the EC50 is 9500 nM.
In the case of `NCC1=CC2(CCCCCCCC2)Cc2c1ccc(O)c2O` [Example 232], the Ki in experiment [1] is over 10000 nM; in experiment [2], 3800 nM. The “Intrinsic Activity” value in experiment [3] is 49. The EC50 in experiment [3] came to 1700 nM.
On to `C=CCC[C@@H]1Cc2c(ccc(O)c2O)[C@H](CN)O1` (relative stereo) [Example 73], for which the Ki in experiment [1] worked out at 34000 nM. In experiment [2], this compound registered an inhibitory constant (Ki) of 64 nM. Also, in experiment [3], the “Intrinsic Activity” value is listed as 138 and the EC50 is 160 nM.
Turning to `NC[C@@H]1S[C@H](c2ccccc2)Cc2c1ccc(O)c2O` (relative stereo) [Example 186, [1,3-cis]1-Aminomethyl-3-phenyl-3,4-dihydro-5,6-dihydroxy-1H-2-benzothiopyran Hydrochloride], the Ki in experiment [1] was found to be 34000 nM. In experiment [2], the Ki was determined as 1900 nM. Also, in experiment [3], the “Intrinsic Activity” value is listed as 95 and the EC50 is 1300 nM.
The like results for `CC(C)(C)c1ccc(OC[C@H]2Cc3c(ccc(O)c3O)[C@@H](CN)O2)cc1` (relative stereo) [Example 57] were, in that order, 730 nM, 1100 nM, 56 and 30 nM.
For `NCCC(=O)Oc1ccc2c(c1OC(=O)CCN)CC(c1ccccc1)C=C2CN` (centres unmarked) [Example 27], the Ki in experiment [1] was 6600 nM; in experiment [2], over 10000 nM. Moreover, the EC50 in experiment [3] came out at 200 nM.
Take `NC[C@H]1O[C@@H](CNC(=O)c2ccco2)Cc2c1ccc(O)c2O` (relative stereo) [Example 168]: the Ki in experiment [1] is over 10000 nM. The Ki in experiment [2] was 17000 nM. Besides, in experiment [3], the “Intrinsic Activity” value was 103 and the EC50 is 270 nM.
`CCN1CCC2=C(C1)c1ccc(O)c(O)c1CC21CCCCCC1` [Example 251]: the figures for the inhibitory constant (Ki) in experiment [1] and in experiment [2] were 1200 nM and 530 nM, respectively. The “Intrinsic Activity” value in experiment [3] is recorded as 41. Besides, the EC50 in experiment [3] turned out to be 470 nM.
